Values quoted from earlier work as cited in patent US20210252031A1, “USE OF LACTULOSE IN THE TREATMENT OF AUTISM” (Curemark, LLC, priority 2006, published 2021).

OC[C@H]1O[C@@H](O[C@@H]2[C@@H](CO)OC(O)(CO)[C@H]2O)[C@H](O)[C@@H](O)[C@H]1O (stereo partly drawn) [Lactulose, 4-O-beta-D-galactopyranosyl-D-fructofuranose]
solubility in water: very soluble in water
